Data set [1] deals with Sp1, Sp3, and Sp4 proteins. The data set can be described thus: Western blot of Sp1, Sp3 and Sp4 protein expression in Panc-1 cells. It counts as cell-based. As to conditions: for Sp1, Sp3, and Sp4 protein expression / order of potency for decreased expression of Sp1, Sp3, and Sp4 proteins: 50 μM; for Sp1, Sp3, and Sp4 protein expression: Western blot, vs DMSO. In general terms: In western blotting, separated proteins are transferred to a membrane and probed.

Data set [2] deals with VEGF promoter constructs pVEGF1 and pVEGF2. The data set can be described thus: VEGF promoter (pVEGF1/pVEGF2) luciferase transactivation in Panc-1 cells. The class given is cell-based. The method, then: Transfection of Panc-1 cells with pVEGF1 and pVEGF2 and treatment with 50 μM ampiroxicam and tolfenamic acid (FIGS. 2A, 2B) or diclofenac sodium (FIGS. 2C, 2D) with pVEGF1 or pVEGF2 constructs. Cells were transfected with pVEGF1 or pVEGF2 treated with DMSO, 50 μM ampiroxicam, tolfenamic acid, or diclofenac sodium, and luciferase activity determined. Transfection of L3.6pl cells with pVEGF1 (FIG. 2E) or pVEGF2 constructs (FIG. 2F). […] Panc-1 cells were transfected with pVEGF2, treated with 20, 40, 60 or 80 μM ampiroxicam or tolfenamic acid, and luciferase determined. Results presented herein are means ±SE for three separate determinations per treatment group, and significant (p<0.05) decrease in luciferase activity is indicated by an asterisk.
Cells are cultured in 6-well plates in 2 ml of DME/F12 medium supplemented with 5% fetal bovine serum. After 16-20 hr when cells are 50-60% confluent, reporter gene constructs are transfected using LIPOFECTAMINE™ reagent (Invitrogen, Carlsbad, Calif.). The effects of the selective non-steroidal anti-inflammatory drugs on transactivation are investigated in Panc1 and L3.6pl cells co-transfected with different VEGF constructs (500 ng). […] For proteasome inhibitor experiments, cells will be co-treated with 2 μM lactacystin, and for electrophoretic mobility shift assay (EMSA), nuclear extracts from Panc1 and L3.6pl cells are isolated as described, and aliquots will be stored at −80° C. until used (Abdelrahim et al, 2004; Abdelrahim et al, 2005).
Previous studies have shown COX-2 inhibitors or small interfering RNAs for Sp proteins decreased vascular endothelial growth factor expression in colon and pancreatic cells (Abdelrahim et al, 2005; Baker et al, 2002; Masferrer et al, 2000; Bouwman et al, 2002). The effects of DMSO, 50 μM tolfenamic acid and 50 μM ampiroxicam on vascular endothelial growth factor expression were initially investigated in Panc-1 cells transfected with the pVEGF1 and pVEGF2 constructs, which contain −2018 to +50 and −131 to +54 VEGF promoter inserts, respectively (FIGS. 2A and 2B).

Data set [3] concerns orthotopically implanted human pancreatic L3.6p1 cancer cells. The data set can be described thus: Orthotopic pancreatic tumor model in athymic nude mice. As to conditions: gemcitabine 50 mg/kg. The method, then:
Median tumor volumes (FIG. 8A) and weights (FIG. 8B) in athymic nude mice treated orthotopically with L3.6pl cells, and corn oil (control), tolfenamic acid (25 and 50 mg/kg), and gemcitabine (50 mg/kg) were determined. […] Tumors from the various treatment groups were analyzed for Sp1, Sp3, Sp4, and VEGF protein expression by Western blot analysis. […] Immunostaining is shown for VEGF (FIG. 8D), and CD31 (FIG. 8E). Pancreatic tumor sections from animals treated with solvent (control), gemcitabine (50 mg/kg) and tolfenamic acid (25 and 50 mg/kg) were immunostained with VEGF and CD31 antibodies.
Male athymic nude mice (NCI-nu) are purchased from the Animal Production Area of the National Cancer Institute Frederick Cancer Research and Development Center, housed and maintained under specific pathogen-free conditions in accordance with current regulations and standards of the United States Department of Agriculture. Injection of L3.6pl cells (with greater than 90% viability is performed as previously described (Bruns et al, 1999). Seven days after implantation of tumor cells into the pancreas of each mouse, five mice are killed to confirm the presence of tumor lesions.
Mice (10 animals per treatment group) are randomized to receive one of the following treatments: (1) thrice weekly oral administrations of vehicle solution which will serve as a control group; (2) thrice weekly oral administrations of at least three non-steroidal anti-inflammatory drugs at doses of 10, 25, and 50 mg/kg/day; (3) twice weekly intraperitoneal injections of 50, 75, and 100 mg/kg/day gemcitabine alone; and (4) combinations of gemcitabine and non-steroidal anti-inflammatory drugs. Mice are sacrificed on day 35 and body weights measured. Primary tumors in the pancreas are excised, measured, weighed. For immunohistochemistry (IHC) and hematoxylin and eosin (H&E) staining procedures, one part of the tumor tissue is fixed in formalin and embedded in paraffin, and another part is embedded in TISSUE-TEK® O.C.T. compound, rapidly frozen in liquid nitrogen, and stored at −70° C. Visible liver metastases are counted with the aid of a dissecting microscope, and the tissues processed for hematoxylin and eosin staining.
Paraffin-embedded tissues are used for identification of Sp proteins, VEGFR2p27 and vascular endothelial growth factor. Tissue sections ([…] thick) are mounted on positively charged SUPERFROST slides (Fischer Scientific, Co, Houston, Tex.) and dried overnight. Sections are deparaffinized in xylene and treated with a graded series of alcohol [100, 95, and 80% ethanol (v/v) in double distilled H2O] and rehydrated in phosphate buffered saline (pH 7.5). Tissues are treated with pepsin (Biomeda) for 15 min at 37° C. and washed with phosphate buffered saline. A positive reaction is visualized by incubating the slides with stable 3,3′-diaminobenzidine for 10-20 min. Sections are rinsed with distilled water, counterstained with Gill's hematoxylin for 1 min, and mounted with UNIVERSAL MOUNT (Research Genetics). […] Tumor sample lysates are also examined by western blot analysis for the same proteins.
The potential anti-tumorigenic and anti-angiogenic activity of tolfenamic acid against pancreatic tumors was investigated in an orthotopic athymic nude mouse model. L3.6pl cells were used for this study based on their aggressive growth and production of liver metastases (Bruns et al, 1999; Dubois et al, 1998).

Data set [4] deals with Panc-1 cells. The data set can be described thus: Cell proliferation assay, Panc-1 cells. It counts as cell-based. As to conditions: for growth of Panc-1 pancreatic cancer cells: different concentrations, 6 days, cell counting. The method, then: FIGS. 6A-6E show comparative effects of non-steroidal anti-inflammatory drugs on Panc-1 cell proliferation and Sp protein expression. Effects of tolfenamic acid (FIG. 6A), ampiroxicam (FIG. 6B), naproxen (FIG. 6C), and diclofenac sodium (FIG. 6D) on Panc-1 cell proliferation. Panc-1 cells were treated with different concentrations of non-steroidal anti-inflammatory drugs for 6 days, and the number of cells were determined on days 2, 4, and 6 by cell counting techniques. […] Panc-1 cells were treated with DMSO, 150 μM ampiroxicam, 150 μM naproxen, and 50 μM tolfenamic acid for 48 hr, and levels of Sp proteins and the cleaved poly (ADP-ribose) polymerase (PARP) protein were determined in whole cell lysates by Western blot analysis. […] Panc1, Panc28 and L3.6pl cells are seeded in DMEM/F12 media with 5% FBS and treated the next day with either vehicle (DMSO) or with the indicated compounds' concentrations. Cells are counted at the indicated times using a Z1™ COULTER COUNTER® cell counter. Each experiment is carried out in triplicate and results expressed as means ±SD for each determination.

For data set [5], the system named is cleaved poly (ADP-ribose) polymerase (PARP) protein. Briefly: Apoptosis: cleaved PARP in Panc-1 cells, Western blot. The class given is cell-based. As to conditions: 150 μM, 48 hr.
Procedure: Cells are washed once with phosphate buffered saline PBS and collected by scraping in 200 μL of lysis buffer [50 mM HEPES, 0.5M sodium chloride, 1.5 mM magnesium chloride, 1 mM EGTA, 10% (v/v) glycerol, 1% Triton X-100, 5 μL/ml of Protease Inhibitor Cocktail (Sigma)]. The lysates from the cells are incubated on ice for 1 hr with intermittent vortexing followed by centrifugation at 40,000 g for 10 min at 4° C. Equal amounts of protein (60 μg) from each treatment group are diluted with loading buffer, boiled and loaded onto 10 and 12.5% SDS-polyacrylamide gel. […] Samples are electrophoresed, transferred to membranes, and proteins detected by incubation with polyclonal primary antibodies Sp1, Sp3, Sp4, HDAC, VEGF (a-20), c-Met, surviving, VEGF, cleaved PARP, and β-tubulin (H-235) followed by blotting with appropriate horseradish peroxidase-conjugated secondary antibody as previously described (Abdelrahim et al, 2004). After autoradiography, band intensities are determined by a scanning laser densitometer (Sharp Electronics Corporation, Mahwah, N.J.) using ZERO-D SCANALYTICS software (Scanalytics Corporation, Billerica, Mass.).
The subject of data set [6] is Sp1, Sp3 and Sp4 in colon cancer cells. As to conditions: cited from earlier work.
Setting [7] is: bi-weekly intraperitoneal from day 7, sacrificed day 35.

SMILES strings stand for the structures.

Turning to `CC(C)Cc1ccc(C(C)C(=O)O)cc1` (centres unmarked) [ibuprofen], in data set [1] (48 hr), the “Sp1, Sp3, and Sp4 protein expression” value is reported as “had no effect”.
For `CC(=O)N[C@@H](CSC(=O)[C@]1([C@@H](O)C(C)C)NC(=O)[C@H](C)[C@@H]1O)C(=O)O` [lactacystin], the “effect on tolfenamic acid-induced Sp1, Sp3, and Sp4 protein degradation” value in data set [1] (2 μM lactacystin plus 50 μM tolfenamic acid, 48 hr) is “significant inhibition of Sp1, Sp3, and Sp4 protein degradation”. Also, in data set [2] (Panc-1 cells co-treated with tolfenamic acid and proteasome inhibitor), the “effect on tolfenamic acid-decreased transactivation of pVEGF2” value is on record as “blocked in cells co-treated with lactacystin”.
In the case of `COc1ccc2c(c1)c(CC(=O)OCC(=O)O)c(C)n2C(=O)c1ccc(Cl)cc1` [acemetacin], the “Sp1, Sp3, and Sp4 protein expression” value in data set [1] (48 hr) was “had no effect”.
With `O=C(O)c1cc(-c2ccc(F)cc2F)ccc1O` [diflunisal], in data set [1] (48 hr), the “order of potency for decreased expression of Sp1, Sp3, and Sp4 proteins” value was “tolfenamic acid>diclofenac˜diflunisal”; the “Sp1, Sp3, and Sp4 protein expression” value is “decreased expression of Sp1, Sp3, and Sp4 proteins”.
Regarding `N#Cc1ccc(C(c2ccc(C#N)cc2)n2cncn2)cc1` [letrozole], the “Sp1, Sp3, and Sp4 protein expression” value in data set [1] (48 hr) is “had no effect”.
Still for that read-out and setting: to `O=C(O)CCC(=O)c1ccc(-c2ccccc2)cc1` [fenbuten] belongs “had no effect”.
On to `Nc1ccn([C@@H]2O[C@H](CO)[C@@H](O)C2(F)F)c(=O)n1` [gemcitabine, 2′, 2′-difluorodeoxycitidine], for which the “immunostaining for vascular endothelial growth factor in tumor sections” value in data set [3] was “relatively greater staining”. Further, in data set [3] (setting [7]), the “Body Weight Median” value worked out at 24 g, the “Incidence Liver metastasis” value is reported as “did not affect the incidence of liver metastasis”, the “Pancreatic Tumor Incidence (positive mice/mice injected)” value was 10/10 and the “Tumor Volume Median” value worked out at 1186.8 mm^3. For the same molecule, the “Tumor Weight Median” value in data set [3] (setting [7]) was found to be 0.8 g. The “Incidence Liver metastasis” value in data set [3] (bi-weekly intraperitoneal from day 7, sacrificed day 35, listed as Gemcitabine) is recorded as 5/10.
In the case of `O=C(O)Cc1ccccc1Nc1c(Cl)cccc1Cl` [diclofenac sodium], in data set [4] (compared with ampiroxicam and naproxen), the “relative potency in Panc-1 growth inhibition” value was “exhibited higher potencies”. The “growth of Panc-1 pancreatic cancer cells” value in data set [4] is “decreased growth of Panc-1 pancreatic cancer cells”. Also, in data set [1] (48 hr), the “order of potency for decreased expression of Sp1, Sp3, and Sp4 proteins” value was “tolfenamic acid>diclofenac˜diflunisal”; the “Sp1, Sp3, and Sp4 protein expression” value is “decreased expression of Sp1, Sp3, and Sp4 proteins”. Moreover, the “luciferase activity, pVEGF1 and pVEGF2 constructs” value in data set [2] (Panc-1 cells, 50 μM) was “decreased transactivation”.
Take `Cc1ccc(C(=O)c2ccc(CC(=O)O)n2C)cc1` [tolmetin]: the “Sp1, Sp3, and Sp4 protein expression” value in data set [1] (48 hr) was “had no effect”.
`COc1ccc2cc([C@H](C)C(=O)O)ccc2c1` [naproxen]: in data set [4], the “growth of Panc-1 pancreatic cancer cells” value was “decreased growth of Panc-1 pancreatic cancer cells”. Also, the “poly (ADP-ribose) polymerase cleavage” value in data set [5] was “only tolfenamic acid induced protein degradation and poly (ADP-ribose) polymerase cleavage”. Also, in data set [1] (48 hr), the “Sp1, Sp3, and Sp4 protein expression” value is recorded as “had no effect”. Besides, in data set [1] (150 μM, 48 hr (concentration of comparable growth inhibition)), the Sp protein degradation entry is listed as “only tolfenamic acid induced protein degradation”.
Turning to `CS(=O)(=O)Nc1ccc([N+](=O)[O-])cc1Oc1ccccc1` [nimesulide], in data set [6], the “levels of Sp1, Sp4 and Sp3” value is “decreased levels of Sp1 and Sp4 (but not Sp3)”.

Source of the values: patent publication US20080261911A1, “Uses of diphenyl/diphenylamine carboxylic acids” (priority 2006, published 2008).
